According to US12427140B2, “4-[5-[(rac)-1-[5-(3-chlorophenyl)-3-isoxazolyl]ethoxy]-4-methyl-4H-1,2,4-triazol-3-yl]pyridine for use in prevention and/or treatment of pain in an animal” (priority 2019, dated 2025):

Tests used:
[1] = Adverse effect on kidneys; settings: in vivo
[2] = Dissolution of TT001 in I.V. formulation vehicle; type: physicochemical; settings: 0.1 to 10 mg/ml in 40% w/v HPβCD solution in water for injection; a couple of hours for complete dissolution
Description: Formulation Method for the Preparation of TT001 for I.V. Dosing, 0.1 to 10 mg/ml
The formulation method is applicable at concentrations in formulation between 0.1 and 10 mg/mL corresponding to 0.262 and 26.2 μmol/mL
Preparation of 40% w/v HPβCD solution in water for injection
Excipients Hydroxypropyl-β-cyclodextrin, Kleptose, Roquette (HPβCD) 400 mg (40% w/v)
Water for injection to 1 ml (1.13 g)
Preparation of TT001 I.V. formulations between 0.1 and 10 mg/ml
Vehicle (40% w/v HPβCD solution in water for injection) to 1 ml (1.13 g)

[3] = cited from earlier work
[4] = tested on: pain in dogs with chronic osteoarthritis; settings: cited from earlier work

| SMILES | adverse effect on kidneys [1] | dissolution [2] | effect on TLESR/reflux ([3]; high dose of 13 mg (about 0.19 mg/kg), 2 to 3 hours after food-intake) | side effects ([3]; high doses of 13 mg) | effect on reflux ([3]; prior to food intake and at 1-2 hours after food intake) | pain killer effect in dogs [4] |
| --- | --- | --- | --- | --- | --- | --- |
| C[C@@H](Oc1nnc(-c2ccncc2)n1C)c1cc(-c2cccc(Cl)c2)on1 [TT001, 4-[5-[(1R)-1-[5-(3-Chlorophenyl)-3-isoxazolyl]ethoxy]-4-methyl-4H-1,2,4-triazol-3-yl]pyridine] | not shown any adverse effect on kidneys | moderate | some effect | Some serious side effects | no significant effect | – |
| COc1cccc(C2(O)CCCCC2CN(C)C)c1 (stereo not drawn) [Tramadol] | – | – | – | – | – | do not occur |
